Literature values as cited in patent EP1897537A1, “Composition comprising an angiotensin II receptor antagonist” (Novartis AG, priority 2006, dated 2008).

Tests used:
[1] = immediate release tablet formulation (Diovan ®)
[2] = most acidic pKa; fumaric acid values at 25 °C

Compound: CCCCC(=O)N(Cc1ccc(-c2ccccc2-c2nnn[nH]2)cc1)[C@H](C(=O)O)C(C)C [Valsartan, (S)-N-(1-carboxy-2-methylprop-1-yl)-N-pentanoyl-N-[2'-(1H-tetrazol-5-yl)biphenyl-4-ylmethyl]amine]
- bioavailability [1]: around 30%

Compound: O=C(O)CCC(=O)O [succinic acid]
- pKa1 [2]: about 4.2
